“Also recorded” adds a separate entry of the source.
How the values were obtained:
[1] = system: CCl4-fibrosis induced mice; assay: CCl4-induced hepatic fibrosis in mice: liver injury and fibrosis assessment; assay type: in vivo, mouse; conditions: for liver injury (Ishak injury score): CCl4 fibrosis-induced mice, treated vs untreated; for hepatic fibrosis (Ishak liver fibrosis scoring, Bioquant analysis): compared to the CCl4 fibrosis-induced untreated group, Copaxone 200 microgram/day I.P. or Linomycin 1 mg/ml drinking water, last 2 weeks of 6 weeks CCl4
Procedure: (§1) Hepatic fibrosis was induced by IP CCl4 administration for 6 weeks in 8 week-old male wild-type C57Bl/6 mice. Within the last 2 weeks animals were also treated with either Copaxone 200 microgram/day I.P (Group A), Linomycin given by drinking water 1 mg/ml (Group B) or normal saline (group C), and were compared to naïve mice (Group D). Eight animals were included in each group. Hepatic fibrosis was evaluated by Ishak Knodell score [Knodell, R. G. et al., Hepatology 1981; 1(5):431-5], hydroxyproline and by analyzing 36 Sirius Red stained histological liver sections per animal with Bioquant® morphometry system. Splenocytes were isolated for FACS analysis from all animal groups. The correlation between hepatic fibrosis and CD4, CD8, NK cells, iKIR and aKIR expression on splenocytes was assessed.
Hepatic fibrosis animal model: Hepatic fibrosis was induced by IP CCl4 (10% as diluted with corn oil) administration 5 microliter/g body weight; for 4-6 weeks in 8 week-old male mice.
(§2) Liver and colon histology: The posterior one-third of the liver, the rectosigmoid colon were fixed in 10% formalin for 24 hours and then paraffin-embedded in an automated tissue processor. […] sections were cut from each animal specimen. Hematoxylin and eosin (H&E) staining was performed for each animal section.
Liver sections (15 μm) were stained in 0.1% Sirius Red F3B in saturated picric acid (both from Sigma). Additionally, alpha smooth muscle actin immunohistochemistry was performed using the DAKO kit (CAT# U7033 EPOS, Monoclonal) according to the manufacturer's instructions.
Hepatic Fibrosis quantitation: Relative fibrosis area (expressed as a % of total liver area) was assessed by analyzing 36 Sirius red-stained liver sections per animal. Each field was acquired at 10× magnification and then analyzed using a computerized Bioquant® morphometry system. To evaluate the relative fibrosis area, the measured collagen area was divided by the net field area and then multiplied by 100. Subtraction of vascular lumenal area from the total field area yielded the final calculation of the net fibrosis area.
Alpha smooth muscle actin immunoblot: Immunoblot analysis of Alpha-SMA in liver extracts is performed as previously described [de Waal Malefyt, R., et al., J. Exp. Med. 1991; 174:915-924] with modifications. Whole-liver protein extracts were prepared in liver homogenization buffer (50 mmol/L Tris-HCl [pH 7.6], 0.25% Triton-X 100, 0.15 M NaCl, 10 mM CaCl2 and complete mini EDTA-free protease inhibitor cocktail (Roche Diagnostics, Mannheim, Germany). Then proteins (30 μg per lane) were resolved on a 10% SDS-polyacrylamide gel under reducing conditions. For immunoblotting, proteins were transferred to a Protran membrane and incubated overnight at 4° C. in a blocking buffer containing 5% skim milk. Anti-SMA mouse monoclonal antibody (DAKO, cat# M0851) and peroxidase-conjugated goat anti-mouse IgG (P.A.R.I.S., Compiègne, France) and enhanced chemiluminescence were used.

splenocytes [2] = assay: FACS analysis of splenocytes in CCl4-fibrosis induced mice; assay type: in vivo, mouse; conditions: for spleen CD4:CD8 ratio: vs CCl4-induced fibrosis untreated group, FIG. 7; for spleen total number of NK cells: vs untreated fibrotic and naive groups, FIG. 8
Procedure: as §1
(§3) Splenocyte isolation: Spleens were harvested at the time of sacrifice and fractionated through a 70-μm nylon cell strainer. After RBC lysis, splenocytes were washed, suspended in RPMI 1640 medium and stored at 4° C. until FACS analysis.
(§4) Fluorescent-activated cell sorting analysis (FACS): splenocytes are analysed by direct immunofluorescence reactivity with a series of antibodies (Abs) using standard techniques on a Coulter flow cytometer (BECTON DICKINSON, USA). Briefly, 3×10^5 spleen cells are incubated for 30 minutes at 4° C. with Abs conjugated to fluorescein isothiocyanate (FITC), phycoerythrin (PE) or allophycocyanin (APC), washed three times, and resuspended in fixative solution with 2% paraformaldehyde for analysis. Antibodies used for staining splenocytes are monoclonal anti-mouse CD4, CD8 conjugated by PE and FITC respectively (BD Biosciences). For staining natural killer (NK) cells APC-conjugated rat anti-mouse CD49b/Pan-NK cells monoclonal antibody which identifies the majority of NK cells is used. For killer inhibitory receptors (iKIR) monoclonal mouse anti-mouse Ly-49C and Ly-49I conjugated by PE are used. For the killer activating receptor (aKIR) FITC-conjugated rat anti-mouse LY-49D monoclonal antibody were used. To defined the role of T regulatory cells we used the anti CD25 monoclonal antibodies. To identify lymphocytes staining with peridinin chlorophyll-α protein (Per-CP)-conjugated rat anti-mouse CD45 (BD Biosciences) was used. Lymphocyte subsets are presented as percentage of the CD45+ cells.

intrahepatic lymphocytes = assay: FACS analysis of intrahepatic lymphocytes in CCl4-fibrosis induced mice; assay type: in vivo, mouse
colitis-induced mice = assay: TNBS-colitis in mice: macroscopic and microscopic colitis score; assay type: in vivo, mouse; conditions: treated vs control colitis-induced mice
Procedure: Each group includes 10 male animals.
(§5) Following Ketamine/Xylazine anesthesia, animals were sacrificed, and serum, colons are harvested at day 12. Blood samples are obtained and frozen at −20° C. until assayed for cytokine levels (IL2, IL4, IFNg, IL10 and TGFb). Splenocyte subpopulations are analyzed by FACS for CD4 and CD8, NK markers, and killer inhibitory and activation receptors. Colons are assessed for inflammatory severity.
Colitis induction as inflammatory bowel disease animal model: TNBS-colitis was induced by rectal instillation of TNBS, 1 mg/mouse, dissolved in 100 μl of 50% ethanol as described [Trop S, Samsonov D, Gotsman I, Alper R, Diment J and Ilan Y (1999) Hepatology 29: 746-755].
as §2

splenocytes [3] = assay: FACS analysis of spleen cell populations in colitis-induced mice; assay type: in vivo, mouse
Procedure: as §5, §3, §4

serum cytokines = assay: Serum cytokine levels in colitis-induced mice; assay type: in vivo, mouse; conditions: vs colitis-induced untreated group
Procedure: as §5

dendritic cells = conditions: through modulation of dendritic cells; cited from earlier work
skin and thyroid grafts = conditions: cited from earlier work
[4] = system: graft-specific T cell lines; conditions: in vitro with stimulating allogeneic cells; cited from earlier work
[5] = system: relapsing-remitting multiple sclerosis; conditions: cited from earlier work

Substance: glatiramer acetate [Copaxone]
- anti-fibrotic effect in the animal model ([1]; CCl4 fibrosis mouse model, overall conclusion): significant anti-fibrotic effect
- liver injury (Ishak injury score) ([1]; listed as Glatiramer acetate): reduced liver injury
- liver injury (Ishak injury score) ([1]; listed as copaxon): no significant difference
- liver injury (Ishak injury score) ([1]; listed as glatiramer acetate): significantly lower
- fibrosis severity, % of collagen in the analyzed area ([1]; after CCl4 fibrosis induction, p<0.0001, FIG. 4): significantly reduced
- hepatic fibrosis (Ishak liver fibrosis scoring, Bioquant analysis) [1]: significant reduction of fibrosis
- hepatic fibrosis (Ishak liver fibrosis scoring, Bioquant analysis) ([1]; listed as glatiramer acetate): significantly lower
- alpha smooth muscle actin amounts (Western blot, liver) ([1]; vs CCl4 animal group, FIG. 5): significantly reduced
- spleen CD4 cells (splenocytes [2]; between fibrotic groups A, B and C, FIG. 6): no significant changes
- spleen CD8 cells (splenocytes [2]; compared to group C (p<0.05) or D (p<0.005), FIG. 6): significantly decreased
- spleen NK aKIR:NK iKIR ratio (splenocytes [2]; compared to the naive group (group D), p<0.0001, FIG. 9): significant increase
- spleen NK aKIR:NK iKIR ratio (splenocytes [2]; compared to the untreated fibrotic group (group C), p<0.05, FIG. 9): significantly lower
- spleen CD4:CD8 ratio (splenocytes [2]): increased; also recorded: significantly elevated
- spleen CD4:CD8 ratio (splenocytes [2]; listed as A): significantly elevated
- spleen total number of NK cells (splenocytes [2]): elevated
- spleen total number of NK cells (splenocytes [2]; listed as A): increased number
- intrahepatic CD4 cells (intrahepatic lymphocytes; between fibrotic groups A and C, FIG. 10): no significant changes
- intrahepatic NK cells number (intrahepatic lymphocytes; compared to fibrosis group C, p<0.0001, FIG. 12): significantly increased
- intrahepatic CD8 cells (intrahepatic lymphocytes; compared to group C, p<0.001, FIG. 10): significantly decreased
- intrahepatic CD4:CD8 ratio (intrahepatic lymphocytes; compared to group C, p<0.002, FIG. 11): significantly elevated
- macroscopic colitis score (tissue injury) (colitis-induced mice; FIG. 13a): prominent reduction
- microscopic colitis score (tissue injury) (colitis-induced mice; FIG. 13b, p<0.03): prominent reduction
- CD4 IFN-γ secreting cells (splenocytes [3]; colitis induced-Copaxone treated group, p<0.02, FIG. 16): increase
- spleen CD4 cell number (splenocytes [3]; colitis induced-Copaxone treated group, p<0.03, FIG. 15): significant increase
- spleen CD8 cell populations (splenocytes [3]; colitis-induced mice, FIG. 15): unaffected
- antigen presenting cells (APC), spleen (splenocytes [3]; colitis-induced mice, FIG. 17): seemed to be reduced
- serum IL-10 level (serum cytokines; p<0.002, FIG. 18): significantly reduced
- serum IL-4 level (serum cytokines; p<0.004, FIG. 18): significantly reduced
- serum IFN-γ level (serum cytokines; p<0.006, FIG. 18): significantly reduced
- IL-10 production (dendritic cells): increase
- Th2 CD4 cell development (dendritic cells): promote
- skin graft survival (skin and thyroid grafts; skin grafting assay): prolonged
- functional deterioration of thyroid grafts (skin and thyroid grafts; thyroid grafting assay): inhibited
- interleukin-2 and interferon-gamma secretion of graft-specific T cell lines [4]: inhibited
- proliferation of graft-specific T cell lines [4]: inhibited
- disease activity and burden of disease (MRI measures) ([5]; European/Canadian study): significantly decrease
- tolerability ([5]; human, in vivo): generally well tolerated
- overall disability status ([5]; patients with RRMS): significantly improved
- efficacy by relapse rate, proportion of relapse-free patients, number of gadolinium-enhancing lesions ([5]; subcutaneous 20 mg/day, patients with RRMS): significantly effective
